“Also recorded” adds a separate entry of the source.
How the values were obtained:
[1] = day 7, Alzet minipump 80 μg/ml in PBS
[2] = test system: SARS-CoV-2 strain B.1.351; assay type: in vivo, Golden Syrian hamster
MMP-9 = assay: Gelatin zymography of plasma MMP-9 in lung transplant recipients; assay type: in vivo, human; settings: low and high dose vs control, 30 minutes after 1st and 2nd lung reperfusion
Description: We designed this trial mainly as a Phase I safety and feasibility study that would allow an optimal infusional dose to be determined based on dose-limiting toxicities identified in lung transplant recipients. We also evaluated the potential efficacy by clinical outcomes and the lab evaluation of various cytokines/chemokines, DAMPs and enzymes. Blood was drawn for cytokine/chemokine, DAMPs and MMP-2/-9 analysis at the following different timepoints: 1) before infusion, 2) 15 minutes before reperfusion of the 1st lung, 3) 30 minutes after reperfusion of 1st lung, 4) 30 minutes after reperfusion of 2nd lung, and 5) 6 hours after reperfusion of 1st lung. HMGB1 and sRAGE levels were measured using a customized human Cytokine/Chemokine multiplex immunoassay (Millipore Sigma, Burlington, MA) at The University of Virginia Flow Cytometry Core (RRID: SCR_01 7829) as previously described (LAU et al., J Heart Lung Transplant, (2020), 39:563-570).
Plasma samples were collected as described above. Protein concentrations were determined with BCA protein assay. Equal amounts of proteins (20 μg) were loaded in each lane for MMP-2 and-9 gelatinolytic activity detection by use of gelatin zymography as our previous publications (ZHAO et al., J Biol Chem, (2003), 278:15056-15064; ZHAO et al., Am J Physiol Lung Cell Mol Physiol, (2011), 300: L718-729).

SARS-CoV-2 = assay: Regadenoson in SARS-CoV-2-infected K18-ACE2 mice: survival; assay type: in vivo, mouse; settings: for survival / mortality of infected K18-ACE2 mice: 1.44 μg/kg/hr, 7-day Alzet pump, vs saline
[3] = test system: plasma proinflammatory cytokines/chemokines; assay: Luminex plasma cytokines/chemokines in regadenoson-treated COVID-19 patients; assay type: in vivo, human
MHS cells = assay: RAGE shedding in alveolar macrophages (MHS): Western blot of sRAGE, immunofluorescence of RAGE; assay type: cell-based, mouse; settings: PMA-treated MHS cells; GM6001 2 nM, regadenoson 100 nM, ATL146e 10 nM
COVID-19 patients = assay: Regadenoson infusion in hospitalized COVID-19 patients: safety and clinical monitoring; assay type: in vivo, human; settings: for toxicities / side effects (nausea): during infusion or 30 days of follow-up; for SpO2: before vs 24 hours after RA infusion, pulse oximetry, N=5; for blood pressure: during and post RA infusion
Description: In cohort 1 of this trial, we tested the safety, tolerability, and toxicity of regadenoson in 5 COVID-19 patients (WHO stages 4-5) receiving supplemental oxygen without mechanical ventilation. All subjects received an infused loading dose of 5.0 μg/kg up to a maximum of 400 μg over 30 minutes, followed by a maintenance dose of 1.44 μg/kg/hr for 6 hours. Toxicity of regadenoson was graded by using Common Terminology for Adverse Events Criteria. Vital signs, pulse oximetry, arterial blood gas, laboratory studies, and electrocardiograms were performed on a schedule commensurate with level of care to identify potential risk of the study drug during and 12 hours post infusion. The trial was monitored by an NIH designated DSMB. Peripheral blood samples were collected at 4 timepoints. Along with clinical monitoring, plasma levels of cytokines (14-plex Luminex panel) were measured at various time points. Cytokine data were analyzed by SAS 9.5 PROC MIXED. Activation of peripheral blood mononuclear cells including iNKT cells was analyzed by flow cytometry. Flow cytometry data were analyzed by FCS Express 7 Research edition and GraphPad Prism v9. The plasma levels of regadenoson were determined via liquid chromatography-mass spectrometry.
Consented Covid-19 patients were treated with RA administered intravenously using a pediatric infusion pump at a loading dose rate of 5 μg/kg/hr for 30 min followed by a maintenance dose of 1.44 μg/kg/hr for 6 hours. Subjects' vital signs including oxygen saturation (SpO2), blood pressure, heart rate and respiratory rate were monitored throughout RA infusion.
Blood samples were drawn as a source of peripheral blood mononuclear cells (PBMCs). Cells were frozen in 10% DMSO and thawed for analysis of live cells by flow cytometry. Cytokines, CRP, and D dimer levels were measured in plasma. Blood samples were collected just prior to the start of RA infusion (0 hr), just prior to the end of the loading dose (30 min), 4 hours into the maintenance dose (4.5 hr), and the next day (24 hr).

[4] = PI day 7, compared to control group

CNC(=O)c1cnn(-c2nc(N)c3ncn([C@@H]4O[C@H](CO)[C@@H](O)[C@H]4O)c3n2)c1 [Regadenoson]
mean +/-SEM plasma level for Regadenoson [1]: 7.6 ± 1.3 ng/mL
albumin leakage into BAL [2, 4]: slight increase; also recorded: did not significantly
plasma IL13 [2, 4]: slightly depressed; also recorded: did not significantly
time course of the disease or viral titer detected in throat swabs ([2]; RT-qPCR): did not significantly
plasma IL4 ([2]; compared to control): depressed; also recorded: did significantly
decrease in weight gain ([2]; daily weights, vs control group): did not significantly
histologic distribution or severity of lung pathology ([2]; day 7): did not significantly
plasma Transforming Growth Factor beta (TGFb) ([2]; day 7, compared to control): decreased; also recorded: did significantly
spread of virus to olfactory bulb (brain) ([2]; day 7, compared to control): decreased; also recorded: did significantly
respiratory physiology parameters (EF50, Rpef, Penh) ([2]; whole body plethysmography, PI day 7): did not significantly
gelatinolytic activity of MMP-9 in plasma (MMP-9): significantly decreased
treated mice died (SARS-CoV-2; 1.44 μg/kg/hr subcutaneous infusion, 7-day pump, mostly on day 7): 50%
survival / mortality of infected K18-ACE2 mice (SARS-CoV-2): increases survival
survival / mortality of infected K18-ACE2 mice (SARS-CoV-2; listed as RA): decreases mortality
measured cytokines reduced ([3]; 14-plex Luminex panel, after 4 hours of regadenoson infusion): Twelve of the fourteen
levels of 13 pro-inflammatory cytokines, ratio over baseline ([3]; 30 minutes after start of RA infusion): very little effect
pro-inflammatory cytokines reduced, ratio over baseline ([3]; 4.5 hours after start of RA infusion): 11 of 13
PMA-induced shedding of cell membrane-anchored RAGE (MHS cells): suppressed the shedding of RAGE; also recorded: partially inhibited
toxicities / side effects (nausea) (COVID-19 patients; 5 COVID-19 patients): Transient and self-limiting nausea was reported by a single subject
toxicities / side effects (nausea) (COVID-19 patients; 5 COVID-19 patients, listed as RA): 1 case of transient self-limiting nausea, but no other toxicities or reportable side effects
serious adverse events (COVID-19 patients; 5 COVID-19 patients, loading dose 5.0 μg/kg over 30 minutes, maintenance 1.44 μg/kg/hr for 6 hours): No serious adverse events were observed
time to discharge (COVID-19 patients; 5 patients, all recovered): 3 to 9 days
D dimer levels (COVID-19 patients; 24 hours post RA infusion, n=5): significantly decreased
SpO2 after the RA infusion (COVID-19 patients; Case 3, 88% on admission): 97%
SpO2 (COVID-19 patients): significantly less (P<0.05) than 24 hours after treatment; also recorded: statistically significant difference
SpO2 (COVID-19 patients; listed as RA): significantly further elevated
blood pressure (COVID-19 patients; n=5): no significant changes
blood pressure (COVID-19 patients; n=5, listed as RA): remain stable
CRP levels reduced by (COVID-19 patients; in 3 of 4 patients, 24 hours after RA infusion): > 50%
vital signs (COVID-19 patients; throughout the infusion and 12 hours post infusion): stable
subjective symptoms (COVID-19 patients; within 24 hours of RA treatment): subjective improvement in all subjects

Source: US12115182B2, “Adenosine A2A agonists for the treatment of cytokine storm syndrome” (priority 2021, dated 2024)
